Several values for one entry are separate records, joined by “and”; a condition that tells them apart may be missing. Identical values can stand only once. Entries after “also recorded” stand apart in the source; their conditions may differ.
Key:
[1] = 37 °C at neutral pH; cited from earlier work
[2] = ORAC(o) assay: oxygen radical absorbance capacity by dissolved oxygen; type: biochemical; set-up: unit not given here; conditions: quercetin sample at 10µg/mL
Method: Method of Measuring Antioxidant Activity. In operation, the ORAC(o) assay of the present invention was used to evaluate antioxidant compositions, combinations and the like of solutions against a target molecule (linoleic acid) with oxygen present at equilibrium with the air. A free radical initiator is added and the time it takes for oxygen to disappear is measured, yielding the rate of disappearance. Trolox® is used as the standard, and a blank is run as a control. Amount of dissolved oxygen vs. time is plotted allowing direct comparison of net areas under the curve. A detailed method is as follows: Buffers (K2HPO4 (F.W. 174.2), NaH2PO4 (FW 120.0)) were obtained from Sigma (St. Louis, MO). […] HPLC grade acetone was obtained from Fisher (Hampton, NH). A YSI […] biological oxygen meter was obtained from YSI (Yellow Springs, Ohio) and used according to the manufacturer's specifications. ORAC(o) Method. The following stock solutions were used. […] Weigh 65.33g into 500mL of volumetric flask, and add dH20 to the mark. Concentration is 750 mM. Store 750 mM K2HPO4 stock solution in a refrigerator (2 to 8°C) equipped with a calibrated thermometer. Target temperature is 4°C. 750mM NaH2PO4 (FW 120.0); Weigh 45.00 g into 500 mL of volumetric flask, and add dH20 to the mark. […] Keep covered at room temperature until ready to use. […]

[3] = ORAC(fl) assay (fluorescein, method of Ou et al.); type: biochemical; conditions: mixed at different ratios with quercetin; standard acetone:water solution
Method: Prior Art Method of Measuring Antioxidant Activity for Comparison. For the ORAC(fl) assay, the method of Ou et al. (Ou , B., Hampsch-Woodill, M. and Prior, R.L., J. Agric. Food Chem. 2001, 49, 4619-4626) was followed. Differences from the Ou procedure as published included the speed of the orbital shaker (Ou, 400 rpm; herein, 280 rpm), and the centrifuge speed (Ou, 14,000 rpm, 15 min; herein, 3200 rpm, 15 min and the length of the assay (Ou, 30 min; herein, 100 min). Fluorescein, sodium salt, was obtained from Aldrich (Milwaukee, WI). For the Ou method, a standard amount of fluorescein is added to an antioxidant product being tested, and the beginning level of fluorescence is measured. A free radical initiator is added, and the time and degree of disappearance of fluorescence are measured. Trolox®, 6-Hydroxy-2,5,7,8-tetramethylchroman-2-carboxylic Acid, is a cell-permeable, water-soluble derivative of vitamin E with potent antioxidant properties. Trolox® prevents peroxynitrite-mediated oxidative stress and apoptosis in rat thymocytes and is a synthetic antioxidant that is consistent from lot-to-lot and is used as the standard and run for comparison with each sample. A blank (control) used in calculations of the ORAC(o) value for each samples may be included in each run. Fluorescence vs. time is plotted. The blank (control) is subtracted from every curve. […]

CC(C)(N=NC(C)(C)C(=N)N)C(=N)N.Cl.Cl [AAPH, 2,2' azobis (2-amidinopropane) dihydrochloride]
half life [1]: about 175 hours

O=c1c(O)c(-c2ccc(O)c(O)c2)oc2cc(O)cc(O)c12 [quercetin]
Area Under Curve (AUC) ([2]; each day an average of 3 runs, 5 day precision trial): 202.7 and 212.9 and 187 and 202.9 and 213.1
Area under curve ([2]; single runs of single day precision trial): 207.4 and 198.2 and 205 and 201.6 and 202.1

Cc1c(C)c2c(c(C)c1O)CC[C@@](C)(CCC[C@H](C)CCC[C@H](C)CCCC(C)C)O2 [α-tocopherol]
contribution of α-tocopherol to AO activity [3]: no contribution to AO activity; also recorded: no statistically significant activity

Reference: patent EP1858489B1, “METHODS AND COMPOSITIONS FOR MODIFIED RELEASE OF NUTRITIONAL SUPPLEMENTS” (Mannatech, Inc., priority 2005, dated 2006)
